Assay results as given in patent US8088924B2, “Pyridone derivatives having a binding activity to the cannabinoid type 2 receptor” (Shionogi & Co., Ltd., priority 2000, dated 2012).

What was measured:
human CB2 receptor = molecular target: T1, human CB2 receptor (Homo sapiens, UniProt P34972); assay: Human CB2 receptor binding inhibition ([3H]CP55940, membranes of CB2R-expressing CHO cells)
T1 construct: The coding region of human CB2 receptor (CB2R) cDNA (Munro etc, Nature, 1993, 365, 61-65) was inserted into the mammalian expression vector; expressed in transfected cells
T1 sequence (P34972 whole entry): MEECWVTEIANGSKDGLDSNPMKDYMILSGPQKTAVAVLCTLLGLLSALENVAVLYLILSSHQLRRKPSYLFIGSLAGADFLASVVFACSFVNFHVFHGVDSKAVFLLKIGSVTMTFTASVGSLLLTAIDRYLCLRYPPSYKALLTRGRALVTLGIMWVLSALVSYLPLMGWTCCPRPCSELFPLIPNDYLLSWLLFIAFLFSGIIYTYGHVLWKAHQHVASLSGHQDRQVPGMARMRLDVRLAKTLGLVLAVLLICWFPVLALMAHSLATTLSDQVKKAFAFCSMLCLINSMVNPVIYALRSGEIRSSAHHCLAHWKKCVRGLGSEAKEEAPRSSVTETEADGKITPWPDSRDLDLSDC

human CB1 receptor = molecular target: T2, human CB1 receptor (Homo sapiens, UniProt P21554); assay: Human CB1 receptor binding assay ([3H]CP55940, membranes of CB1R-expressing CHO cells); settings: [3H]CP55940 0.5 nM
T2 construct: expressed in transfected cells
T2 sequence (P21554 whole entry): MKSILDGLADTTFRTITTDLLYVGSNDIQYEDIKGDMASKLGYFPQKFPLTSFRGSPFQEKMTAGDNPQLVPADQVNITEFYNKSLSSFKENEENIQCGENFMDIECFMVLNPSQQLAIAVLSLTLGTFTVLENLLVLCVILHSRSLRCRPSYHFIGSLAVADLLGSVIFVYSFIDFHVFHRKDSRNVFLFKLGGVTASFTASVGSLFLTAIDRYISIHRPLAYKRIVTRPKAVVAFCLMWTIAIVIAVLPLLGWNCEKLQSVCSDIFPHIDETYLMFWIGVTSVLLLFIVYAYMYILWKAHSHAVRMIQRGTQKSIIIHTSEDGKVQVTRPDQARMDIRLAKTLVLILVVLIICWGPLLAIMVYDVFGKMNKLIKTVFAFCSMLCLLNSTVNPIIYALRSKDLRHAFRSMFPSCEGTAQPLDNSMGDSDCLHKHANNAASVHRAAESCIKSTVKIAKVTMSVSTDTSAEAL

Row | melting point [°C] | SMILES | Ki (human CB2 receptor) [nM] | Ki (human CB1 receptor) [nM]
1 |  | CCCCn1c2c(cc(C(=O)NCCc3ccc(N)cc3)c1=O)CCCC2 [Example 4-003] | 44 | 680
2 |  | CCCCn1c(C)c(C)cc(NC(=O)c2ccccc2Cl)c1=O [Example 5-005] |  | 391
3 |  | CCCCn1c(C)c(C)cc(NC(=O)c2ccccc2C)c1=O [Example 5-006] |  | 390
4 | 129 to 130 | CCCCn1c(C)c(C)cc(NC(=O)c2ccc(F)cc2)c1=O |  | 
5 | 117 | CCn1c(C)c(C)cc(C(=O)NCc2ccccc2)c1=O |  | 
6 | 245 to 247 | Cc1ccc(Oc2nc3ccccc3o2)c(=S)n1C |  | 
